Source: publication PMC4581723, “Evaluation of In Vitro Activity of the Class I PI3K Inhibitor Buparlisib (BKM120) in Pediatric Bone and Soft Tissue Sarcomas” (PLoS ONE, 2015)
pIC50: −log10 of the molar value. Like-named read-outs stand apart in the source and are kept apart here. Blank lines part the entries; values can stand above or below the compound they belong to.

Legend:
[1] = system: bone and soft-tissue sarcomas; design: method as in PMID 23477833; conditions: combination with the mTOR inhibitor temsirolimus; phase II; patients with bone and soft-tissue sarcomas; cited from earlier work
[2] = system: pediatric tumor cell lines; design: method as in PMID 23002019; conditions: panel of pediatric tumor cell lines, including sarcomas; read-out: median relative IC50; cited from earlier work
[3] = system: osteosarcoma; design: method as in PMID 24961790, PMID 24333720; conditions: cited from earlier work
[4] = system: osteosarcoma; conditions: cited from earlier work
[5] = system: TC-32; experiment: Cell viability assay (MTT), 72 h; type: cell-based; conditions: TC-32 cells
[6] = system: chronic lymphocytic leukemia; conditions: cited from earlier work
[7] = system: SJSA; experiment: Cell viability assay (MTT), 72 h; type: cell-based; conditions: SJSA (OS), read-out: GDC-0941 cell viability IC50
[8] = system: A204; experiment: Cell viability assay (MTT), 72 h; type: cell-based; conditions: Homo sapiens, A204 (RMS), read-out: GDC-0941 cell viability IC50
[9] = system: RD; experiment: Cell viability assay (MTT), 72 h; type: cell-based; conditions: Homo sapiens, RD (RMS), read-out: GDC-0941 cell viability IC50
[10] = system: TC-174; experiment: Cell viability assay (MTT), 72 h; type: cell-based; conditions: TC-174 (ES), read-out: GDC-0941 cell viability IC50
[11] = system: KHOS; experiment: Cell viability assay (MTT), 72 h; type: cell-based; conditions: KHOS (OS), read-out: GDC-0941 cell viability IC50
[12] = system: HOS; experiment: Cell viability assay (MTT), 72 h; type: cell-based; conditions: Homo sapiens, HOS (OS), read-out: GDC-0941 cell viability IC50
[13] = system: A4573; experiment: Cell viability assay (MTT), 72 h; type: cell-based; conditions: A4573 (ES), read-out: GDC-0941 cell viability IC50

Compound: cixutmumuab: IGF1R antibody, evaluated in combination with the mTOR inhibitor temsirolimus
response rate [1]: 15%

Compound: COc1ccc(Cl)c(Nc2nc3ccccc3nc2NS(=O)(=O)c2cccc(NC(=O)C(C)(C)N)c2)c1 [SAR245408]
pIC50 [2]: 4.96

Compound: Cn1c(=O)n(-c2ccc(C(C)(C)C#N)cc2)c2c3cc(-c4cnc5ccccc5c4)ccc3ncc21 [NVP-BEZ235]
in vitro cellular proliferation [3]: inhibited
tumor growth in vivo [4]: inhibited

Compound: CC(=O)Nc1cccc(-n2c(=O)n(C3CC3)c(=O)c3c(Nc4ccc(I)cc4F)n(C)c(=O)c(C)c32)c1 [tramenitib, trametinib]
cytotoxicity as single agent [5]: no tramenitib cytotoxicity was observed

Compound: Cc1nc(NC(=O)N2CCC[C@H]2C(N)=O)sc1-c1ccnc(C(C)(C)C(F)(F)F)c1 [NVP-BYL719]
in vitro cellular proliferation [3]: inhibited
tumor growth in vivo [4]: inhibited
tumor growth ([4]; combined with the chemotherapeutic agent ifosfamide): synergistically inhibited tumor growth

Compound: CC[C@H](Nc1ncnc2[nH]cnc12)c1nc2cccc(F)c2c(=O)n1-c1ccccc1 [idelalisib]
overall response rate ([6]; combined with rituximab): 81%
overall response rate ([6]; single agent): 72%

pIC50 [7]: 6.53
Compound: CS(=O)(=O)N1CCN(Cc2cc3nc(-c4cccc5[nH]ncc45)nc(N4CCOCC4)c3s2)CC1 [GDC-0941, pictilisib]
pIC50 [8]: 7.57
pIC50 [9]: 6.56
pIC50 [10]: 6.77
pIC50 [11]: 5.92
pIC50 [12]: 6.79
pIC50 [13]: 6.42
